Assay results as given in paper PMC7822874, “Chemoprotective antimalarials identified through quantitative high-throughput screening of Plasmodium blood and liver stage parasites” (Scientific Reports, 2021).
Where two headings read alike, the source gives them in different places.

How the values were obtained:
[1] = system: P. berghei-ANKA-GFP-LucCON liver stage parasites in HepG2-A16-CD81EGFP cells; test: P. berghei liver stage Pb-Luc assay, Method 1 (UCSD, 1536-well); format: cell-based, Plasmodium berghei; conditions: P. berghei liver stage, averaged response (percent); for Average P. berghei 1 µM response (%): the header list (r8) defines it as the 1 µM dose
[2] = system: P. falciparum Dd2 (clone B2) asexual blood stage parasites; test: P. falciparum Dd2 asexual blood stage SYBR Green-I 72 h proliferation assay (qHTS); format: cell-based, Plasmodium falciparum; conditions: averaged P. falciparum asexual blood stage potency, log10 of AC50 in M
HepG2-A16-CD81EGFP cells = conditions: averaged response (percent)
in vitro = conditions: human, hepg2-a16-cd81egfp cells
[3] = HepG2, the header list (r10) describes it as the 1 µM dose

| SMILES | Average P. berghei 3 µM response( %) [1] [%] | Average P. berghei 1 µM response (%) [1] [%] | Pf ABS Log AC50 (M) [2] [M] | Average HepG2 3 µM response( %) (HepG2-A16-CD81EGFP cells; HepG2, 3 µM dose) [%] | Average HepG2 3 µM response( %) (HepG2-A16-CD81EGFP cells; [3]) [%] | viability at 3 µM (in vitro; % viability) [%] | viability at 3 µM (in vitro) [%] |
| --- | --- | --- | --- | --- | --- | --- | --- |
| COc1cc(C)cc(CN2CCC(Cc3ccccc3)CC2)c1O [MLS001178265] | 102 | 89 | -6.137 | 88 | 97 | 87.6 |  |
| O=C(Nc1ccc(Nc2ccncc2)cc1)c1ccc(Nc2ccnc3ccc([N+](=O)[O-])cc23)cc1 [MLS000766132] | 96 | 114 | -6.337 | 90 | 92 | 90.3 |  |
| CCCCc1c(C)c(C#N)c2nc3ccccc3n2c1Nc1c(C)n(C)n(-c2ccccc2)c1=O [MLS000555448] | 121 | 128 | -5.662 | 90 | 93 | 90.2 |  |
| CCc1ccccc1OC[C@@H](O)CN[C@@H]1CCCc2ccccc21 [NCGC00025196] | 77 | 73 | -5.800 | 92 | 95 | 91.7 |  |
| COc1ccc(C2c3[nH]c4ccccc4c3C[C@H]3C(=O)N(C4CCN(Cc5ccccc5)CC4)CC(=O)N23)cc1OC (some centres unmarked) [MLS001215281] | 73 | 94 | -5.612 | 90 | 101 | 90.3 |  |
| Cc1cc(O)c(CN2CCN(c3ccccc3)CC2)cc1C [MLS000569270] | 97 | 88 | -5.650 | 107 | 102 |  | 107 |
| CCN1CCN(C(=O)c2ccc3c(c2)N(Cc2c(F)cccc2Cl)C(=O)c2ccccc2S3)CC1 [NCGC00108184] | 76 | 94 | -8.075 | 107 | 105 |  |  |
| c1cc(Nc2ncnc3sc4c(c23)CCC4)ccn1 [MLS000681348] | 95 | 92 | -5.462 | 103 | 103 |  |  |
| COc1ccc(C2=C(Nc3ccc(C)cc3)c3ccccc3C2=O)cc1 [MLS000563980] | 25 | 81 | -5.637 | 89 | 94 |  |  |
| CC(C)OCCCNc1sc([S+](=O)([O-])c2ccccc2)nc1[S+](=O)([O-])c1ccc(Cl)cc1 [NCGC00116822] | 76 | 75 | -6.575 | 94 | 93 |  |  |
| COc1ccc(-c2c3c(nc4sc(C(=O)Nc5ccc(Cl)cc5)c(N)c24)CC(C)(C)CC3=O)cc1 [NCGC00100738] | 90 | 111 | -6.425 | 109 | 104 |  |  |
| Cc1ccc(NC(=O)CCS(=O)(=O)c2cc(Br)cc3c2N(C(=O)C2CC2)CC3)cc1 [NCGC00107230] | 118 | 117 | -5.625 | 102 | 99 |  |  |
| Oc1ccc(-c2nnc(S)n2-c2ccc3c(c2)OCCO3)c(O)c1 [MLS000332001] | 70 | 78 | -6.012 | 95 | 101 |  |  |
